For assay [1], the target named is T1, XtTPC3 (TPC3 from Xenopus tropicalis) (Xenopus tropicalis, UniProt A0A6I8S6D1, D511C).
T1 construct: gene LOC100495031; full-length cDNA in pGEMHE, Xenopus laevis oocytes (cRNA); pCXN2 in HEK293T for gating charges; homodimer
T1 sequence (A0A6I8S6D1 1-779 D511C): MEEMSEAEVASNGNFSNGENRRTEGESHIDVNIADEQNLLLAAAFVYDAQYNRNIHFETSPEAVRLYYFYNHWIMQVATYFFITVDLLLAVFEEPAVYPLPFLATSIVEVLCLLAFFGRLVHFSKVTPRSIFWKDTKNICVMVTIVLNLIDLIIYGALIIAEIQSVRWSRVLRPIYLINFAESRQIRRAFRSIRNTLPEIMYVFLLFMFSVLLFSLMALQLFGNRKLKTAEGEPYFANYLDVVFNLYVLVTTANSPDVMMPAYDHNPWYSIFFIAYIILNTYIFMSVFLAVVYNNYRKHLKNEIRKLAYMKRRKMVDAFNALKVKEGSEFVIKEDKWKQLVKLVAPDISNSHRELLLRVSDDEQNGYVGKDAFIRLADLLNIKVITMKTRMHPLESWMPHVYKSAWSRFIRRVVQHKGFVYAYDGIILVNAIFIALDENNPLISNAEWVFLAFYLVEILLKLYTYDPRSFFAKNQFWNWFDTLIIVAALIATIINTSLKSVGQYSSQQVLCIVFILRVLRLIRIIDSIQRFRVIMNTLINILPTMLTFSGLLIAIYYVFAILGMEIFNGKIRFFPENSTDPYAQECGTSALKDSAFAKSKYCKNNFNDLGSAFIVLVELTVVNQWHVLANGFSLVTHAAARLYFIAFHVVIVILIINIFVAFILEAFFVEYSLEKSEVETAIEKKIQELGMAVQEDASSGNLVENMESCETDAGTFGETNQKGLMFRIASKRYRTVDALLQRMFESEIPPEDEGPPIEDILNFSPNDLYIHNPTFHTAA
Nature of the assay: two-electrode voltage clamp, Cys-accessibility (activation rate). The format is cell-based. The settings on record: covalent at introduced Cys511; 0.5 mM MTSES in ND-96, pH 7.4, room temperature; +135 mV pulses; PI(3,4)P2 present (after long depolarization); Xenopus oocytes.

Assay [2] addresses T2, XtTPC3 (TPC3 from Xenopus tropicalis) (Xenopus tropicalis, UniProt A0A6I8S6D1, R187Q/D511C).
T2 construct: gene LOC100495031; full-length cDNA in pGEMHE, Xenopus laevis oocytes (cRNA); pCXN2 in HEK293T for gating charges; homodimer
T2 sequence (A0A6I8S6D1 1-779 R187Q/D511C): T1 sequence (A0A6I8S6D1 1-779 D511C) with R187Q
The description is as above. As to conditions: covalent at introduced Cys511; 0.5 mM MTSES in ND-96, pH 7.4, room temperature; +135 mV pulses; PI(3,4)P2 present (after long depolarization); Xenopus oocytes. The format is cell-based.

Changes are numbered by the printed parent chain.

Regarding `CS(=O)(=O)SCCS(=O)(=O)O` [MTSES], the MTSES-modification rate was determined as 0.043 ± 0.014 s⁻¹ in assay [1] and 0.011 ± 0.005 s⁻¹ in assay [2].
